PubChem BioAssay (NCI)
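Values below derive from 48-hour exposures of cells grown in 96-well plates, with endpoints linearly interpolated between the two concentrations bracketing the appropriate inhibition level. GI50 = concentration required for 50% inhibition of growth. TGI is the concentration that stops growth completely.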

Key:
Assay in all cases: NCI-60 cell line screen, 48 h
A549 NSCLC = system: A549 NSCLC
HCC-2998 colon = system: HCC-2998 colon
MCF7 breast = system: MCF7 breast
NCI-H522 lung = system: NCI-H522 lung
OVCAR-3 ovarian = system: OVCAR-3 ovarian
PC-3 prostate = system: PC-3 prostate
RPMI-8226 leukemia = system: RPMI-8226 leukemia
SK-OV-3 ovarian = system: SK-OV-3 ovarian
SNB-75 CNS = system: SNB-75 CNS
UACC-62 melanoma = system: UACC-62 melanoma

SMILES | GI50 (A549 NSCLC) [µM] | TGI (A549 NSCLC) [µM] | GI50 (HCC-2998 colon) [µM] | TGI (HCC-2998 colon) [µM] | GI50 (MCF7 breast) [µM] | TGI (MCF7 breast) [µM] | GI50 (NCI-H522 lung) [µM] | TGI (NCI-H522 lung) [µM] | GI50 (OVCAR-3 ovarian) [µM] | TGI (OVCAR-3 ovarian) [µM] | GI50 (PC-3 prostate) [µM] | TGI (PC-3 prostate) [µM] | GI50 (RPMI-8226 leukemia) [µM] | TGI (RPMI-8226 leukemia) [µM] | GI50 (SK-OV-3 ovarian) [µM] | TGI (SK-OV-3 ovarian) [µM] | GI50 (SNB-75 CNS) [µM] | TGI (SNB-75 CNS) [µM] | GI50 (UACC-62 melanoma) [µM] | TGI (UACC-62 melanoma) [µM]
Cn1c(=O)c(Oc2ccc(F)cc2F)cc2cnc(NC3CCOCC3)nc21 | > 25 | > 25 | > 25 | > 25 | > 25 | > 25 | > 25 | > 25 | > 25 | > 25 | > 25 | > 25 | > 21.1 | > 25 | > 25 | > 25 | > 15.5 | > 25 | > 25 | > 25
Cc1ccsc1-c1ccc2c(c1)COC2(CCCN(C)C)c1ccc(F)cc1 (stereo not given) | 4.48 | 18.1 | 1.71 | 3.25 | 1.74 | 3.67 | 3.02 | 12.4 | 2.64 | 9.02 | 3.28 | 13.2 | 2.12 | 4.88 | 8.16 | 21.9 | 1.72 | 6.82 | 1.89 | 4.04
NC(=O)c1cc(Br)ccc1NC(=O)/C=C/c1ccccc1 | 2.39 | > 100 | 28.1 | > 100 | 0.757 | > 100 | 0.981 | 22 | 0.887 | 4.21 | 1.19 | > 100 | 3.29 | > 100 | 3.68 | > 23.6 | 2.16 | 10.7 | 1.24 | > 100
COc1ccc(-c2cn(-c3cc(OC)c(OC)c(OC)c3)c(=O)[nH]2)cc1OC | > 100 | > 100 | > 100 | > 100 | > 100 | > 100 | > 100 | > 100 | > 100 | > 100 | > 100 | > 100 | > 100 | > 100 | > 100 | > 100 | 71.7 | > 100 | > 100 | > 100
O=c1oc2ccc(Br)cc2c(=O)n1-c1ccc(Cl)cc1F | 2.9 | > 94.8 | 2.68 | 9.53 | 1.66 | 10.1 | 0.586 | 7.69 | 0.641 | 8.85 | 1.87 | 7.81 | 0.446 | 2.97 | 0.672 | 4.48 | 0.572 | 2.8 | 0.33 | 1.41
Cc1sc2c(c1C)C(c1ccc(Cl)cc1)=N[C@@H](CC(=O)NCCCN1CCN(C)CC1)c1nnc(C)n1-2 | 3.22 | > 100 | 2.55 | > 100 | 0.0564 | > 100 | 0.0746 | > 100 | 1.33 | > 100 | 1.05 | > 100 | 0.0417 | 5.38 | 0.309 | > 42.3 | < 0.0106 | 0.16 | 0.214 | > 100
O=C1c2cc(F)ccc2-c2c1c1ccc([N+](=O)[O-])cc1c(=O)n2CCCBr | 25.7 | > 100 | 10.7 | > 100 | 1.35 | > 100 | 4.87 | > 100 | 46.8 | > 100 | 28.7 | > 100 | 5.98 | 51.8 | 20.2 | > 100 | 2.97 | 50.5 | 22.8 | 77.7
